# From patent US12162888B2, “Carboxamides as ubiquitin-specific protease inhibitors” (Valo Early Discovery, Inc., priority 2018, dated 2024)
# Molecular target: T1, USP28 (His-tagged USP28-FL-mammalian) (Homo sapiens, UniProt Q96RU2)
# T1 construct: Expression of USP28 (1-1077)-TEV-6*His (pTT5 vector) was carried out in Expi293f cells; made in house; host or cells: Expi293F cells (pTT5 vector)
# T1 sequence (Q96RU2 1-1077): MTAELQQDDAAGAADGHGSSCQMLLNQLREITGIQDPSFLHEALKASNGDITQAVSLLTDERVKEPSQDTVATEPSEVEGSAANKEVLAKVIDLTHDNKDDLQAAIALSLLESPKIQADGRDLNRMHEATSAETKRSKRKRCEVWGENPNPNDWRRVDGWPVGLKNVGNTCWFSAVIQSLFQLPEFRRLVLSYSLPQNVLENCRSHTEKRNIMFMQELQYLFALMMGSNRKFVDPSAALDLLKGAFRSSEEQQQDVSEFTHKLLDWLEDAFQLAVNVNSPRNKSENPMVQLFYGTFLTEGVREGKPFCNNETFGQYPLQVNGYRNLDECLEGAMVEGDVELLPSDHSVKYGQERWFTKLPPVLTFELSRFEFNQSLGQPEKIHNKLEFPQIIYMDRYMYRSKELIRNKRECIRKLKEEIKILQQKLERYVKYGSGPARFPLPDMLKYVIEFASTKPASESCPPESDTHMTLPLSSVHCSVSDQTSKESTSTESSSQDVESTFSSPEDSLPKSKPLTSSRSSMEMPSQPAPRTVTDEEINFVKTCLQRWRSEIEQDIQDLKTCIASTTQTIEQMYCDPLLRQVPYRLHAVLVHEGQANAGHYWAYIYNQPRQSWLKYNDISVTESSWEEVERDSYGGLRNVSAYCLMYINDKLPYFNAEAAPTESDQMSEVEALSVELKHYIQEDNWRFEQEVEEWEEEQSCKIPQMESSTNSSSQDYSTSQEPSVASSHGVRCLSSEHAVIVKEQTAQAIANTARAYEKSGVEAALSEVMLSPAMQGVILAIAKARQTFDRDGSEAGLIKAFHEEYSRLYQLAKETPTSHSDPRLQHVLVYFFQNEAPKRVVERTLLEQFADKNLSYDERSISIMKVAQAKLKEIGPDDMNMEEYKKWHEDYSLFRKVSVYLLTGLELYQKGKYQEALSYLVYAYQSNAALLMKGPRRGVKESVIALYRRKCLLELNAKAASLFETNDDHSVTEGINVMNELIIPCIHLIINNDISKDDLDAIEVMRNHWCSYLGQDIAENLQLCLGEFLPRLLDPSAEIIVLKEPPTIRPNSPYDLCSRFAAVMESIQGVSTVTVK
# Experiment: Ubiquitin-Rhodamine 110 Assay for USP28 Activity, Example A-1(a)
# Assay type: biochemical
# Conditions: Ubiquitin-Rhodamine 110 assay, IC50 ranges, read-out: USP28 A-1(a) IC50
# In short: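 Full-length His-tagged human USP28 (1-1077), expressed in Expi293F cells, was used at […] with 25 nM Ub-Rh110 (<<Km) in 20 mM Tris pH 8.0, 3 mM BME, 0.03% BGG and 0.01% Triton X-100. Compounds (25 μM-1.3 nM, 10-point) were preincubated with enzyme for 30 min, and the reaction ran 45 min at room temperature before a citric acid stop. Fluorescence was read at 485/535 nm, and IC50 came from 4-parameter fits of percent inhibition.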
row,SMILES,IC50 [nM]
1,"N#Cc1c(N2CC3CCC(C2)N3)cc(F)c2c1OC[C@H](NC(=O)c1cnc3c(c1)[C@@H]1CC1CN3)C2 (stereo partly drawn) [Example 228, (6aS,7aR)-N-[(3R)-8-cyano-7-(3,8-diazabicyclo[3.2.1]octan-3-yl}-5-fluoro-3,4-dihydro-2H-1-benzopyran-3-yl]-5H,6H,6aH,7H,7aH-cyclopropa[c]1,8-naphthyridine-2-carboxamide]",200 to 2000

# Same assay, conditions: Ubiquitin-Rhodamine 110 assay, read-out: USP28 A-1(a) IC50 range
row,SMILES,IC50 [nM]
1,"[2H]C1([2H])c2c(F)cc(N3CCNCC3)cc2OC[C@H]1NC(=O)c1sc2nc(C)ccc2c1N (single isomer, unassigned) [Example 33-2]",200 to 2000
2,"CN[C@@H]1CCN(c2ccc3c(c2)CC[C@H](NC(=O)c2sc4nc(C)cnc4c2N)C3)C1 (single isomer, unassigned) [Example 11-27]",50 to 200
3,"Cc1ccc2c(N)c(C(=O)N[C@H]3CCc4c(C#N)c(N5CCNCC5)cc(F)c4C3)sc2n1 (single isomer, unassigned) [Example 14-10]",1 to 50
4,"Cc1cnc2c(N)c(C(=O)N[C@@H]3CCc4cc(N5CCNCC5)c(F)cc4C3)sc2n1 (single isomer, unassigned) [Example 21-11]",200 to 2000
5,"Cc1ccc2c(N)c(C(=O)N[C@@H]3CCc4c(C#N)c(N5CC6CCC(C5)N6)cc(F)c4C3)sc2n1 (single isomer, unassigned) [Example 14-18]",50 to 200
6,"Cc1ccc2c(N)c(C(=O)N[C@@H]3CCc4c(C#N)c(N5CC6CNCC(C5)O6)cc(F)c4C3)sc2n1 (single isomer, unassigned) [Example 14-16]",50 to 200
7,"CO[C@H]1CN(c2ccc3c(c2)OC[C@H](NC(=O)c2sc4nc(C)sc4c2N)C3)CC1N (stereo partly drawn) [Example 118, 6-amino-N-[(3R)-7-[(3,4S)-3-amino-4-methoxypyrrolidin-1-yl]-3,4-dihydro-2H-1-benzopyran-3-yl]-2-methylthieno[2,3-d][1,3]thiazole-5-carboxamide]",50 to 200
8,"Cc1ccc2c(N)c(C(=O)N[C@H]3COc4cc(N5CCNCC5)ccc4[C@@H]3C)sc2n1 (single isomer, unassigned) [Example 11-17]",> 2000
9,"Cc1cnc2c(N)c(C(=O)N[C@H]3CCc4cc(N5C[C@H]6C[C@@H]5CN6)ccc4C3)sc2n1 (single isomer, unassigned) [Example 11-31]",50 to 200
10,"CO[C@H]1CN(c2cc(F)c3c(c2C#N)CC[C@H](NC(=O)c2sc4nc(C)ccc4c2N)C3)C[C@@H]1N (single isomer, unassigned) [Example 14-23]",1 to 50
11,"Cc1cnc2c(N)c(C(=O)N[C@@H]3CCc4c(C#N)c(N5CCNCC5)cc(F)c4C3)sc2n1 (single isomer, unassigned) [Example 14-11]",1 to 50
12,"Cc1ccc2c(N)c(C(=O)N[C@H]3CCc4c(C#N)c(N5CC6CNCC(C5)O6)cc(F)c4C3)sc2n1 (single isomer, unassigned) [Example 14-15]",1 to 50
13,"Cc1nc2sc(C(=O)N[C@@H]3CCc4cc(N5CCNCC5)ccc4C3)c(N)c2s1 (single isomer, unassigned) [Example 11-34]",50 to 200
14,"Cc1nc2sc(C(=O)N[C@H]3CCc4cc(N5CCNCC5)ccc4C3)c(N)c2s1 (single isomer, unassigned) [Example 11-33]",200 to 2000
15,"Cc1ccc2c(N)c(C(=O)N[C@H]3COc4cc(N5C[C@H](CF)[C@H](N)C5)ccc4C3)sc2n1 (single isomer, unassigned) [Example 424]",1 to 50
16,"Cc1cnc2c(N)c(C(=O)N[C@@H]3CCc4cc(N5C[C@H]6C[C@@H]5CN6)ccc4C3)sc2n1 (single isomer, unassigned) [Example 11-32]",200 to 2000
17,"Cc1ccc2c(N)c(C(=O)N[C@H]3COc4cc(N5C[C@H]6CC[C@@H]5CN6)ncc4C3)sc2n1 [Example 76, N-((R)-7-((1R,4R)-2,5-diazabicyclo[2.2.2]octan-2-yl)-3,4-dihydro-2H-pyrano[3,2-c]pyridin-3-yl)-3-amino-6-methylthieno[2,3-b]pyridine-2-carboxamide]",1 to 50
18,"COC[C@@]1(C)CN(c2ccc3c(n2)CC[C@H](NC(=O)c2sc4nc(C)ccc4c2N)C3)C[C@H]1N [Example 343, 3-amino-N-[(6S)-2-[(3S,4S)-4-amino-3-(methoxymethyl)-3-methylpyrrolidin-1-yl]-5,6,7,8-tetrahydroquinolin-6-yl]-6-methylthieno[2,3-b]pyridine-2-carboxamide]",50 to 200
19,"Cc1ccc2c(N)c(C(=O)N[C@@H]3CCc4nc(N5C[C@H](CF)[C@H](N)C5)ncc4C3)sc2n1 [Example 446, 3-amino-N-[(6R)-2-[(3S,4S)-3-amino-4-(fluoromethyl)pyrrolidin-1-yl]-5,6,7,8-tetrahydroquinazolin-6-yl]-6-methylthieno[2,3-b]pyridine-2-carboxamide]",200 to 2000
20,"Cc1ccc2c(N)c(C(=O)N[C@@H]3CCc4nc(N5C[C@@H](CF)[C@@H](N)C5)ncc4C3)sc2n1 [Example 445, 3-amino-N-[(6R)-2-[(3R,4R)-3-amino-4-(fluoromethyl)pyrrolidin-1-yl]-5,6,7,8-tetrahydroquinazolin-6-yl]-6-methylthieno[2,3-b]pyridine-2-carboxamide]",200 to 2000
21,"CN[C@H]1CCN(c2ccc3c(c2)CC[C@H](NC(=O)c2sc4nc(C)cnc4c2N)C3)C1 (single isomer, unassigned) [Example 11-25]",50 to 200
22,"Cc1ccc2c(N)c(C(=O)N[C@@H]3CCc4cc(N5CCNCC5)ccc4C3)sc2n1 (single isomer, unassigned) [Example 11-22]",50 to 200
23,"Cc1cnc2c(N)c(C(=O)N[C@H]3CCc4cc(N5CCNCC5)cc(F)c4C3)sc2n1 (single isomer, unassigned) [Example 11-38]",50 to 200

# Same assay, conditions: biochemical IC50 range, Ubiquitin-Rhodamine 110 assay, read-out: USP28 A-1(a)
row,SMILES,IC50 [nM]
1,"Cc1ccc2c(N)c(C(=O)N[C@H]3CCc4c(F)c(N5CC6CCC(C5)N6)cc(F)c4C3)sc2n1 (single isomer, unassigned) [Example 603]",1 to 50
2,"CN[C@H]1CN(c2ccc3c(c2)OC[C@H](NC(=O)c2sc4nc(C)ccc4c2N)C3)C[C@@H]1CF [Example 662, 3-amino-N-[(3R)-7-[(3S,4R)-3-(fluoromethyl)-4-(methylamino)pyrrolidin-1-yl]-3,4-dihydro-2H-1-benzopyran-3-yl]-6-methylthieno[2,3-b]pyridine-2-carboxamide]",1 to 50
3,"Cc1ccc2c(N)c(C(=O)N[C@H]3COc4cc(N5C[C@@H](N)[C@](C)(CF)C5)ccc4C3)sc2n1 [Example 661, 3-amino-N-[(3R)-7-[(3R,4S)-4-amino-3-(fluoromethyl)-3-methylpyrrolidin-1-yl]-3,4-dihydro-2H-1-benzopyran-3-yl]-6-methylthieno[2,3-b]pyridine-2-carboxamide]",1 to 50
4,"Cc1ccc2c(N)c(C(=O)N[C@H]3COc4cc(N5C[C@H](N)[C@@](C)(CF)C5)ccc4C3)sc2n1 [Example 659, 3-amino-N-[(3R)-7-[(3S,4R)-4-amino-3-(fluoromethyl)-3-methylpyrrolidin-1-yl]-3,4-dihydro-2H-1-benzopyran-3-yl]-6-methylthieno[2,3-b]pyridine-2-carboxamide]",1 to 50
5,"Cc1ccc2c(N)c(C(=O)N[C@H]3COc4cc(N5C[C@@H](N)[C@@](C)(CF)C5)ccc4C3)sc2n1 [Example 660, 3-amino-N-[(3R)-7-[(3S,4S)-4-amino-3-(fluoromethyl)-3-methylpyrrolidin-1-yl]-3,4-dihydro-2H-1-benzopyran-3-yl]-6-methylthieno[2,3-b]pyridine-2-carboxamide]",1 to 50
